Target: T1, human O-GlcNAcase (Homo sapiens, UniProt O60502)
T1 sequence (O60502 1-916): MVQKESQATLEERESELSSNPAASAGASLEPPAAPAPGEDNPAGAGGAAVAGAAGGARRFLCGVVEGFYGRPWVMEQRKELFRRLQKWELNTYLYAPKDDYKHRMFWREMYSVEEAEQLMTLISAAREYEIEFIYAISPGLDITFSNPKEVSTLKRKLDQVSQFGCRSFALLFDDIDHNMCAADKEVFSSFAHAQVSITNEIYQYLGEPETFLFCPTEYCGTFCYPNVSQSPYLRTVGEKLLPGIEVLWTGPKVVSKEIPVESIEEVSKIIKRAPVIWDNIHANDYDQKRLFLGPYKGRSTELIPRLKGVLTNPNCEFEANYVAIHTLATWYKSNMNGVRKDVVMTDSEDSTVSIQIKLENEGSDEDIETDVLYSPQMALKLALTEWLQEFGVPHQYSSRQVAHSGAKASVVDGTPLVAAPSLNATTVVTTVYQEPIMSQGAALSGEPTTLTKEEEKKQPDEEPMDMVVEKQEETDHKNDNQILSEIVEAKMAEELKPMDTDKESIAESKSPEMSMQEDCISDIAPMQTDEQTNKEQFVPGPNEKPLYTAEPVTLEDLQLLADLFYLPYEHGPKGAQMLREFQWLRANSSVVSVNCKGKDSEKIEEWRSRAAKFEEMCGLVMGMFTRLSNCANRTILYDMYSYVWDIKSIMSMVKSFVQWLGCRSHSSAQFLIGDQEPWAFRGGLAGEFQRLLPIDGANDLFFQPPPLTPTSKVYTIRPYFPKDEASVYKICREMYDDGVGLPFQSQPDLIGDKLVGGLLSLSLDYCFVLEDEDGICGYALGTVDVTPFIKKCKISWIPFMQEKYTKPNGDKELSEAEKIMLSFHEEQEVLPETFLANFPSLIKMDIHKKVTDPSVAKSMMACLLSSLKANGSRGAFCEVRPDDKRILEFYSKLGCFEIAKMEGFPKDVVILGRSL
Test: Determination of KI values for inhibition of O-GlcNAcase activity (fluorogenic 4-methylumbelliferyl GlcNAc substrate)
Format: biochemical
Conditions: purified human O-GlcNAcase 0.7 nM, 2 mM substrate, pH 7.0, room temperature; Cheng-Prusoff; read-out: Ki
Procedure: Assay for Determination of […] for Inhibition of O-GlcNAcase Activity
Experimental procedure for kinetic analyses: Enzymatic reactions were carried out in a reaction containing 50 mM NaH2PO4, 100 mM NaCl and 0.1% BSA (pH 7.0) using 2 mM 4-Methylumbelliferyl N-acetyl-β-D-glucosaminide dihydrate (Sigma M2133) dissolved in ddH2O, as a substrate. The amount of purified human O-GlcNAcase enzyme used in the reaction was 0.7 nM. Test compound of varying concentrations was added to the enzyme prior to initiation of the reaction. The reaction was performed at room temperature in a 96-well plate and was initiated with the addition of substrate. […] The slope of product production was determined for each concentration of compound tested and plotted, using standard curve fitting algorithms for sigmoidal dose response curves. The values for a four parameter logistic curve fit of the data were determined.

Structure (SMILES) | Ki
COc1ccc(CC[C@@H]([C@H]2O[C@@H]3SC(N(C)C)=N[C@@H]3[C@@H](O)[C@@H]2O)C(F)(F)F)cc1 (single isomer, unassigned) [Example 2] | 1.6 nM
COc1ccc(C/C=C(\[C@H]2O[C@@H]3SC(N(C)C)=N[C@@H]3[C@@H](O)[C@@H]2O)C(F)(F)F)cc1 (single isomer, unassigned) [Example 3] | 9.5 nM
COc1ccc(C/C=C(/[C@H]2O[C@@H]3SC(N(C)C)=N[C@@H]3[C@@H](O)[C@@H]2O)C(F)(F)F)cc1 (single isomer, unassigned) [Example 4] | 16.2 nM
CNC1=N[C@@H]2[C@@H](O)[C@H](O)[C@@H]([C@H](O)CCc3ccc(OC)cc3)O[C@@H]2S1 (single isomer, unassigned) [Example 6] | 139 nM
CNC1=N[C@@H]2[C@@H](O)[C@H](O)[C@@H]([C@@H](O)CCc3ccc(OC)cc3)O[C@@H]2S1 (single isomer, unassigned) [Example 7] | 1.2 nM
CNC1=N[C@@H]2[C@@H](O)[C@H](O)[C@@H]([C@](O)(CCc3ccc(OC)cc3)C(F)(F)F)O[C@@H]2S1 (single isomer, unassigned) [Example 8] | 0.95 nM
CNC1=N[C@@H]2[C@@H](O)[C@H](O)[C@@H]([C@@](O)(CCc3ccc(OC)cc3)C(F)(F)F)O[C@@H]2S1 (single isomer, unassigned) [Example 9] | 24 nM
CN(C)C1=N[C@@H]2[C@@H](O)[C@H](O)[C@@H](C(O)(CCc3ccccc3)C(F)(F)F)O[C@@H]2S1 (stereo in doubt) [Example 27, (3aR,5S,6S,7R,7aR)-2-(dimethylamino)-5-((S)-1,1,1-trifluoro-2-hydroxy-4-phenylbutan-2-yl)-5,6,7,7a-tetrahydro-3aH-pyrano[3,2-d]thiazole-6,7-diol] | 0.92 nM
CN(C)C1=N[C@@H]2[C@@H](O)[C@H](O)[C@@H]([C@@](O)(CCc3ccccc3)C(F)(F)F)O[C@@H]2S1 (stereo in doubt) [Example 28, (3aR,5S,6S,7R,7aR)-2-(dimethylamino)-5-(1,1,1-trifluoro-2-hydroxy-4-phenylbutan-2-yl)-5,6,7,7a-tetrahydro-3aH-pyrano[3,2-d]thiazole-6,7-diol] | 316 nM
COc1ccc(CCC(O)([C@H]2O[C@@H]3SC(N(C)C)=N[C@@H]3[C@@H](O)[C@@H]2O)C(F)(F)F)cc1 (stereo in doubt) [Example 29, (3aR,5S,6S,7R,7aR)-2-(dimethylamino)-5-((S)-1,1,1-trifluoro-2-hydroxy-4-(4-methoxyphenyl)butan-2-yl)-5,6,7,7a-tetrahydro-3aH-pyrano[3,2-d]thiazole-6,7-diol] | 1.1 nM
COc1ccc(CC[C@H]([C@H]2O[C@@H]3SC(N(C)C)=N[C@@H]3[C@@H](O)[C@@H]2O)C(F)(F)F)cc1 [Example 1, (3aR,5R,6S,7R,7aR)-2-(dimethylamino)-5-((R)-1,1,1-trifluoro-4-(4-methoxyphenyl)butan-2-yI)-5,6,7,7a-tetrahydro-3aH-pyrano[3,2-d]thiazole-6,7-diol] | 109 nM
CCOC(=O)/C=C/[C@H]1O[C@@H]2SC(NC)=N[C@@H]2[C@@H](O)[C@@H]1O [Example 5, (E)-ethyl 3-((3aR,5R,6S,7R,7aR)-6,7-dihydroxy-2-(methylamino)-5,6,7,7a-tetrahydro-3aH-pyrano[3,2-d]thiazol-5-yl)acrylate] | 72 nM
CNC1=N[C@@H]2[C@@H](O)[C@H](O)[C@@H](C(F)(F)CCc3ccc(OC)cc3)O[C@@H]2S1 [Example 10, (3aR,5S,6S,7R,7aR)-5-(1,1-difluoro-3-(4-methoxyphenyl)propyl)-2-(methylamino)-5,6,7,7a-tetrahydro-3aH-pyrano[3,2-d]thiazole-6,7-diol] | 69 nM
CN(C)C1=N[C@@H]2[C@@H](O)[C@H](O)[C@@H](CC#N)O[C@@H]2S1 [Example 11, 2-((3aR,5R,6S,7R,7aR)-2-(dimethylamino)-6,7-dihydroxy-5,6,7,7a-tetrahydro-3aH-pyrano[3,2-d]thiazol-5-yl)acetonitrile] | 5.9 nM
CNC1=N[C@@H]2[C@@H](O)[C@H](O)[C@@H](CCC(=O)OC)O[C@@H]2S1 [Example 12, methyl 3-((3aR,5R,6S,7R,7aR)-6,7-dihydroxy-2-(methylamino)-5,6,7,7a-tetrahydro-3aH-pyrano[3,2-d]thiazol-5-yl)propanoate] | 22 nM
CNC(=O)CC[C@H]1O[C@@H]2SC(N(C)C)=N[C@@H]2[C@@H](O)[C@@H]1O [Example 13, 3-((3aR,5R,6S,7R,7aR)-2-(dimethylamino)-6,7-dihydroxy-5,6,7,7a-tetrahydro-3aH-pyrano[3,2-d]thiazol-5-yl)-N-methylpropanamide] | 100 nM
C=C(C)[C@H]1O[C@@H]2SC(NC)=N[C@@H]2[C@@H](O)[C@@H]1O [Example 14, (3aR,5R,6S,7R,7aR)-2-(methylamino)-5-(prop-1-en-2-yl)-5,6,7,7a-tetrahydro-3aH-pyrano[3,2-d]thiazole-6,7-diol 2,2,2-trifluoroacetate] | 10.1 nM
C=C([C@H]1O[C@@H]2SC(NC)=N[C@@H]2[C@@H](O)[C@@H]1O)C(F)(F)F [Example 15, (3aR,5R,6S,7R,7aR)-2-(methylamino)-5-(3,3,3-trifluoroprop-1-en-2-yl)-5,6,7,7a-tetrahydro-3aH-pyrano[3,2-d]thiazole-6,7-diol] | 63 nM
C=C(C)[C@H]1O[C@@H]2SC(N(C)C)=N[C@@H]2[C@@H](O)[C@@H]1O [Example 16, (3aR,5R,6S,7R,7aR)-2-(dimethylamino)-5-(prop-1-en-2-yl)-5,6,7,7a-tetrahydro-3aH-pyrano[3,2-d]thiazole-6,7-diol] | 21 nM
CNC1=N[C@@H]2[C@@H](O)[C@H](O)[C@@H]([C@@H](CCc3ccc(OC)cc3)C(F)(F)F)O[C@@H]2S1 [Example 17, (3aR,5R,65,7R,7aR)-2-(methylamino)-5-((R)-1,1,1-trifluoro-4-(4-methoxyphenyl)butan-2-yl)-5,6,7,7a-tetrahydro-3aH-pyrano[3,2-d]thiazole-6,7-diol] | 139 nM
CNC1=N[C@@H]2[C@@H](O)[C@H](O)[C@@H]([C@H](CCc3ccc(OC)cc3)C(F)(F)F)O[C@@H]2S1 [Example 18, (3aR,5R,65,7R,7aR)-2-(methylamino)-5-(1,1,1-trifluoro-4-(4-methoxyphenyl)butan-2-yl)-5,6,7,7a-tetrahydro-3aH-pyrano[3,2-d]thiazole-6,7-diol] | 1.1 nM
CN(C)C1=N[C@@H]2[C@@H](O)[C@H](O)[C@@H](C(=CCc3ccccc3)C(F)(F)F)O[C@@H]2S1 [Example 19, (3aR,5R,6S,7R,7aR)-2-(dimethylamino)-5-(1,1,1-trifluoro-4-phenylbut-2-en-2-yl)-5,6,7,7a-tetrahydro-3aH-pyrano[3,2-d]thiazole-6,7-diol] | 20 nM
CN(C)C1=N[C@@H]2[C@@H](O)[C@H](O)[C@@H]([C@H](O)Cc3ccccc3)O[C@@H]2S1 [Example 20, (3aR,5R,6S,7R,7aR)-2-(dimethylamino)-5-((R)-1-hydroxy-2-phenylethyl)-5,6,7,7a-tetrahydro-3aH-pyrano[3,2-d]thiazole-6,7-diol] | 736 nM
CN(C)C1=N[C@@H]2[C@@H](O)[C@H](O)[C@@H]([C@@H](O)Cc3ccccc3)O[C@@H]2S1 [Example 21, (3aR,5R,6S,7R,7aR)-2-(dimethylamino)-5-((S)-1-hydroxy-2-phenylethyl)-5,6,7,7a-tetrahydro-3aH-pyrano[3,2-d]thiazole-6,7-diol] | 25.6 nM
COc1ccc(CC[C@@H](O)[C@H]2O[C@@H]3SC(N(C)C)=N[C@@H]3[C@@H](O)[C@@H]2O)cc1 [Example 22, (3aR,5R,6S,7R,7aR)-2-(dimethylamino)-5-((R)-1-hydroxy-3-(4-methoxyphenyl)propyl)-5,6,7,7a-tetrahydro-3aH-pyrano[3,2-d]thiazole-6,7-diol] | 505 nM
COc1ccc(CC[C@H](O)[C@H]2O[C@@H]3SC(N(C)C)=N[C@@H]3[C@@H](O)[C@@H]2O)cc1 [Example 23, (3aR,5R,6S,7R,7aR)-2-(dimethylamino)-5-((S)-1-hydroxy-3-(4-methoxyphenyl)propyl)-5,6,7,7a-tetrahydro-3aH-pyrano[3,2-d]thiazole-6,7-diol] | 6.4 nM
